In patent US4699898A, “Tripeptides affecting immune response” (Imreg, Inc., priority 1985, dated 1987):
Residues, ends and D or L forms follow the SMILES beside them.

Tested on: dermal reaction to tetanus toxoid antigen
Conditions: in vivo

N[C@@H](Cc1ccc(O)cc1)C(=O)NCC(=O)NCC(=O)O [TGG, Tyr-Gly-Gly] (H-Tyr-Gly-Gly-OH)
Dermal reaction without antigen: No reaction was observed
